From patent US11272841B2, “Indicator fluids, systems, and methods for assessing movement of substances within, to or from a cerebrospinal fluid, brain or spinal cord compartment of a cranio-spinal cavity of a human” (BRAINWIDESOLUTIONS AS, priority 2017, dated 2022)

Columns and labels:
[1] = Gadobutrol concentration in blood at time points after gadobutrol was present in CSF (FIG. 1e-h); type: in vivo, human
Text: In test studies, the inventors measured concentrations of the indicator fluid gadobutrol in blood at different time points after indicator fluid was present in CSF. […] In FIG. 1e-h are provided examples of measurements of gadobutrol (indicator fluid) concentrations in blood. On the y-axis is shown the indicator fluid concentration level 119 in blood (i.e. concentration of gadobutrol measured in units mg/kg), and on x-axis the time 120 elapsed from gadobutrol was present within the CSF. The concentration level of gadobutrol was measured after different time points 120, including after 1-2 hours, 3-4 hours, 5-6 hours, 7-8 hours, 23-26 hours, and 46-49 hours, for different individuals.
With reference to FIG. 1e, trend plots of average values of gadobutrol concentrations in blood (mg/kg) are shown for individuals with intracranial hypotension 121 (symbol ♦; n=4), idiopathic intracranial hypertension 122 (symbol ●; n=1), idiopathic normal pressure hydrocephalus 123 (symbol ▴; n=1), cerebral cyst 124 (symbol O; n=4), and arachnoid cyst 125 (symbol ▪; n=4). The letter n refers to number of individuals within each group. […] Half-time of gadobutrol in blood is about 1.8 hours. It should be noted that the amount and time course of appearance of gadobutrol in blood differs for the various groups of individuals, related to the fact that the ability to remove substances from the cranio-spinal compartment varies between individuals. […] The concentrations may be determined after 24 or 48 hours or after any time point within 72 hours after the indicator fluid is present in CSF.
In FIG. 1f-h, the inventors provide some examples of measurements of indicator fluid (the MRI contrast agent gadobutrol) concentration level in blood at different time points after indicator fluid being present in CSF in three separate individuals. It should be noted that the invention gives no limitation regarding the method by which the blood concentration is measured. […]

[2] = T1 black-blood MRI: percentage change in normalized signal units in CSF and parasagittal dura after intrathecal gadobutrol, cohort of 18 individuals (FIG. 23g-w); type: in vivo, human
Text: It has for long been an unanswered question how a molecular substance escapes from the CSF of the craniospinal compartment to the dural lymphatics and further to extracranial lymph nodes in humans. Experimental studies in animals have indicated a role of lymphatic vessels in dura mater, but this has yet to be shown in human subjects. The present invention addresses removal of molecular substances from the craniospinal compartment in humans. Basis for the various aspects of the invention are novel observations made by the inventors regarding transport of indicator fluids from CSF to lymphatic structures in dura. The inventors have provided novel observations using time series of MRI T1 black-blood sequences after intrathecal administration of the MRI contrast agent gadobutrol. […]
FIG. 23o-s illustrate the determination of signal unit ratios, which is particularly useful when measuring indication signals from MRI. Enrichment of indicator fluid is measured as change in T1-BB signal units. […] The enrichment of CSF tracer is quantified as change in signal units (SU) within the regions of interest that are marked by an open circle. The measured signal units were normalized against the reference to correct for any baseline shift of image greyscale between time points. […]

[3] = human, in vivo
Experimental: Repeated T1-weighted MRI scans of the intracranial compartment (and neck region for imaging of cervical lymph nodes), either in the presence or absence of the MRI contrast agent gadobutrol (0.5 ml of 1.0 mmol/ml; Gadovist®, Bayer Pharma AG, GE) delivered to the CSF compartment. MRI scans were acquired on a 3 Tesla Philips Ingenia MRI scanner (Philips Medical systems, Best, The Netherlands). The inventors used a dedicated imaging protocol for each region, that was applied to all time points. The following parameters for 3D T1 w imaging of the intracranial compartment were used: repetition time (TR)=5.1 ms (set to minimum), echo time (TE)=2.3 ms (set to minimum), flip angle=8 degrees, field of view=256×256 cm, and matrix=256×256 pixels (reconstructed 512×512). Total 184 over-contiguous slices with 1 mm thickness were sampled and automatically reconstructed to 368 slices and a thickness of 0.5 mm. Each image acquisition lasted 6 minutes and 29 seconds. An automated anatomy recognition protocol based on landmark detection in MRI data (SmartExam™, Philips Medical Systems, Best, The Netherlands) was applied at every time point to secure consistency and reproducibility of the MRI studies. Neck images were obtained in an anatomical standardized coronal plane, using T1 weighted turbo spin echo (TSE) DIXON with the following main image sequence parameters: TR=560 ms, TE=14 ms, flip angle=90 degrees, field of view 250×198 mm, voxel size=1×1×3 mm reconstructed to 0.58×0.58×3 mm^3, gap 0.3 mm, number of slices=30. For detection of neck lymph nodes, we obtained coronal T2 weighted TSE DIXON with TR=ranged 2500-3500 (actual 2500), TE=80 ms, flip angle=90 degrees, field of view 250×200 mm, resolution 0.6×0.79×3 mm^3 reconstructed to 0.58×0.58×3 mm^3, gap 0.3 mm, number of slices=30. Moreover, to ensure same position on the coronal slices between scan times a screen dump showing the placement of the first coronal images was saved and used as a reference for subsequent planning by the radiographer. […]

Time of maximum concentration in blood after gadobutrol present in CSF ([1]; group trend plot: arachnoid cyst (n=4)): 3 to 4 h
Time of maximum concentration in blood after gadobutrol present in CSF ([1]; group trend plot: cerebral cyst (n=4)): 7 to 8 h
Time of maximum concentration in blood after gadobutrol present in CSF ([1]; group trend plots: intracranial hypotension (n=4), idiopathic intracranial hypertension (n=1), iNPH (n=1)): 5 to 6 h
Time of peak signal change (normalized T1-BB signal units) ([2]; CSF nearby parasagittal dura): 24 h
Time of peak signal change (normalized T1-BB signal units) ([2]; parasagittal dura): 24 h
Increase of indication signal as compared without contrast [3]: 29%
SU enhancement within cervical LNs as proportion of that in the brain [3]: about 40%
Time of peak enhancement in T1 SUs after gadobutrol present within CSF [3]: 24 h
Structure (SMILES): O=C([O-])CN1CCN(CC(=O)[O-])CCN([C@H](CO)[C@H](O)CO)CCN(CC(=O)[O-])CC1.[Gd+3] (racemic) [gadobutrol]
